What was measured:
STZ-diabetic mice = experiment: Acute hypoglycemic assay in STZ-diabetic mice; type: in vivo; settings: for Blood glucose concentration / % Variation of glycemia: STZ-diabetics mice; for hypoglycemic effect: STZ-diabetic animals, 30 mg/kg of bw, started from 3 h and persisted throughout the experiment; for highest anti-hyperglycemic effect: STZ-diabetic mice
Description: Type II diabetes mellitus was induced in mice by a single intraperitoneal injection of freshly prepared STZ (Sigma Aldrich) dissolved in 0.1M citrate buffer, pH 4.5, in a volume of 110 mg/kg of bw. After 7 days of STZ administration, blood glucose levels of each mouse were determined. Mice with blood glucose levels higher than 11 mM were considered diabetic and were included in the study.
STZ-induced diabetic mice and normal mice were placed in single cages with wire-net floors and deprived of food for 12 h before experimentation but allowed free access to tap water throughout. The compounds (at the doses of 10, 30, and 100 mg/kg of bw) were suspended in 0.05% Tween-80 in saline solution. Glibenclamide (10 mg/kg of bw) was suspended in the same vehicle. The target compounds were freshly prepared immediately before experimentation and administered by the intragastrical route at the doses of 10 ml/kg of bw. Control mice received only the vehicle (0.05% Tween-80 in saline solution) by the same route. Blood glucose levels were measured at 0, 1.5, 3, 5, 7, and 9 h after drugs administration.

[1] = DPPH free radical scavenging; settings: mean ± SD (n = 3)
Outline: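 Sample solutions at various concentrations mixed 1:1 with DPPH (0.04 mg/mL) and reacted 30 min at room temperature; absorbance read at 517 nm against ethanol blank, corrected for sample absorbance. Scavenging % calculated versus DPPH alone, triplicate measurements, IC50 derived.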

α-Glucosidase = target: T1, α-Glucosidase (Saccharomyces cerevisiae, UniProt P53341); experiment: biochemical; type: biochemical; settings: for α-glucosidase inhibitory activity (in words): in vitro; for IC50: mean ± SD (n = 3), read-out: α-Glucosidase inhibitory activity IC50 Value
T1 construct: purchased Sigma Aldrich G0660-750UN
T1 sequence (P53341 whole entry): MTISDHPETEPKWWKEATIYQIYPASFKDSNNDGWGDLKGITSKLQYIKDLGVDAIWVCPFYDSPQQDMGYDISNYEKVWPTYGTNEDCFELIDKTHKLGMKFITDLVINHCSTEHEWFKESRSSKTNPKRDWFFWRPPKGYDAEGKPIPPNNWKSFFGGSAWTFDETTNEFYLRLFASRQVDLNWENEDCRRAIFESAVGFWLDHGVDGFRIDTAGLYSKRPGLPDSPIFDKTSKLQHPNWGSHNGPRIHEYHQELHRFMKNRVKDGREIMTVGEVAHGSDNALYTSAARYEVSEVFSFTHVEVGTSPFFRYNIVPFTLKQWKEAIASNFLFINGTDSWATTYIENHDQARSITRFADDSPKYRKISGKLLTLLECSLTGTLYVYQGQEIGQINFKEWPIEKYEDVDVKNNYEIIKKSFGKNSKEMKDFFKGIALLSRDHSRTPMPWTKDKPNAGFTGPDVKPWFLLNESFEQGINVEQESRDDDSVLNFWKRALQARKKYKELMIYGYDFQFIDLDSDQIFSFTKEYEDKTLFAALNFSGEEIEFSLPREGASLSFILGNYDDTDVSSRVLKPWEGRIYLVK
Outline: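 Yeast α-glucosidase and PNPG substrate in 100 mM phosphate buffer, pH 6.8, with DMSO-dissolved compounds were preincubated 10 min at 37 °C, then reacted 20 min at 37 °C after enzyme addition. Na2CO3 stopped the reaction; p-nitrophenol was read at 405 nm. Blank-corrected % inhibition and IC50 came from triplicates.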

AGEs formation = experiment: In vitro inhibitory activity of AGEs formation (bovine serum albumin/glucose); type: biochemical; settings: mean ± SD (n = 3)
Outline: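 Bovine serum albumin (10 mg/mL) with 0.2 M glucose in 50 mM PBS, pH 7.4, plus 0.02% sodium azide, was mixed with compound solutions (0.5–1000 μg/mL in DMSO) and held 14 d at 37 °C. AGE fluorescence was read at ex 350/em 420 nm in triplicate. Inhibition was corrected with glucose-free blanks, and IC50 calculated.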

Row | SMILES | Blood glucose concentration (STZ-diabetic mice; 10 mg/kg of bw per os, 0h) | % Variation of glycemia (STZ-diabetic mice; 10 mg/kg of bw per os, 1.5h) | Blood glucose concentration (STZ-diabetic mice; 10 mg/kg of bw per os, 1.5h) | % Variation of glycemia (STZ-diabetic mice; 10 mg/kg of bw per os, 3h) | Blood glucose concentration (STZ-diabetic mice; 10 mg/kg of bw per os, 3h) | % Variation of glycemia (STZ-diabetic mice; 10 mg/kg of bw per os, 5h) | Blood glucose concentration (STZ-diabetic mice; 10 mg/kg of bw per os, 5h) | % Variation of glycemia (STZ-diabetic mice; 10 mg/kg of bw per os, 7h) | Blood glucose concentration (STZ-diabetic mice; 10 mg/kg of bw per os, 7h) | % Variation of glycemia (STZ-diabetic mice; 10 mg/kg of bw per os, 9h) | Blood glucose concentration (STZ-diabetic mice; 10 mg/kg of bw per os, 9h) | Blood glucose concentration (STZ-diabetic mice; 30 mg/kg of bw per os, 0h) | % Variation of glycemia (STZ-diabetic mice; 30 mg/kg of bw per os, 1.5h) | Blood glucose concentration (STZ-diabetic mice; 30 mg/kg of bw per os, 1.5h) | % Variation of glycemia (STZ-diabetic mice; 30 mg/kg of bw per os, 3h) | Blood glucose concentration (STZ-diabetic mice; 30 mg/kg of bw per os, 3h) | % Variation of glycemia (STZ-diabetic mice; 30 mg/kg of bw per os, 5h) | Blood glucose concentration (STZ-diabetic mice; 30 mg/kg of bw per os, 5h) | % Variation of glycemia (STZ-diabetic mice; 30 mg/kg of bw per os, 7h) | Blood glucose concentration (STZ-diabetic mice; 30 mg/kg of bw per os, 7h) | further results
1 | Cc1ccc(-c2cc3c(O)cc(O)cc3oc2=O)cc1 [Compound 25, 5,7-Dihydroxy-3-(4-methylphenyl)-coumarin] | 19.7 ± 6.1 mM | (−20.30) % | 15.7 ± 6.6 mM | (−24.37) % | 14.9 ± 6.5 mM | (−50.76) % | 9.7 ± 3.4 mM | (−64.97) % | 6.9 ± 3.9 mM | (−56.85) % | 8.5 ± 2.2 mM | 24.8 ± 4.9 mM | (−12.50) % | 21.7 ± 3.9 mM | (−36.23) % | 15.8 ± 4.5 mM | (−64.11) % | 8.9 ± 6.3 mM | (−63.71) % | 9.0 ± 4.8 mM | % Variation of glycemia (STZ-diabetic mice; 30 mg/kg of bw per os, 9h): (−64.11) %; Blood glucose concentration (STZ-diabetic mice; 30 mg/kg of bw per os, 9h): 8.9 ± 3.8 mM; Blood glucose concentration (STZ-diabetic mice; 100 mg/kg of bw per os, 0h): 23.0 ± 4.8 mM; % Variation of glycemia (STZ-diabetic mice; 100 mg/kg of bw per os, 1.5h): (−20.44) %; Blood glucose concentration (STZ-diabetic mice; 100 mg/kg of bw per os, 1.5h): 18.3 ± 3.5 mM; % Variation of glycemia (STZ-diabetic mice; 100 mg/kg of bw per os, 3h): (−25.36) %; Blood glucose concentration (STZ-diabetic mice; 100 mg/kg of bw per os, 3h): 17.2 ± 2.9 mM; % Variation of glycemia (STZ-diabetic mice; 100 mg/kg of bw per os, 5h): (−56.95) %; Blood glucose concentration (STZ-diabetic mice; 100 mg/kg of bw per os, 5h): 9.9 ± 2.7 mM; % Variation of glycemia (STZ-diabetic mice; 100 mg/kg of bw per os, 7h): (−64.78) %; Blood glucose concentration (STZ-diabetic mice; 100 mg/kg of bw per os, 7h): 8.1 ± 1.6 mM; % Variation of glycemia (STZ-diabetic mice; 100 mg/kg of bw per os, 9h): (−60.43) %; Blood glucose concentration (STZ-diabetic mice; 100 mg/kg of bw per os, 9h): 9.1 ± 2.3 mM; IC50 [1]: 603 ± 7.42 µM; α-glucosidase inhibitory activity (in words) (α-Glucosidase): moderate to excellent inhibitory activity; IC50 (α-Glucosidase): 11.5 ± 0.37 µM; IC50 (AGEs formation): 45.8 ± 1.27 µM
2 | O=c1oc2ccc(O)cc2cc1-c1ccc(O)cc1 [Compound 17, 6-Hydroxy-3-(4-hydroxyphenyl)-coumarin] | 26.9 ± 3.8 mM | (−8.92) % | 24.5 ± 3.0 mM | (−15.24) % | 22.8 ± 2.3 mM | (−38.29) % | 16.6 ± 5.8 mM | (−44.98) % | 14.8 ± 8.0 mM | (−45.35) % | 14.7 ± 9.5 mM | 23.3 ± 3.2 mM | (−23.18) % | 17.9 ± 5.7 mM | (−50.22) % | 11.6 ± 4.8 mM | (−64.38) % | 8.3 ± 3.8 mM | (−68.24) % | 7.4 ± 6.7 mM | hypoglycemic effect (STZ-diabetic mice): > 50%; highest anti-hyperglycemic effect (STZ-diabetic mice; 30 mg/kg, at 9 h): ~70.39%; highest anti-hyperglycemic effect (STZ-diabetic mice; 100 mg/kg, at 7 h): ~70.51%; % Variation of glycemia (STZ-diabetic mice; 30 mg/kg of bw per os, 9h): (−70.39) %; Blood glucose concentration (STZ-diabetic mice; 30 mg/kg of bw per os, 9h): 6.9 ± 7.9 mM; Blood glucose concentration (STZ-diabetic mice; 100 mg/kg of bw per os, 0h): 23.4 ± 5.7 mM; % Variation of glycemia (STZ-diabetic mice; 100 mg/kg of bw per os, 1.5h): (−19.66) %; Blood glucose concentration (STZ-diabetic mice; 100 mg/kg of bw per os, 1.5h): 18.8 ± 6.0 mM; % Variation of glycemia (STZ-diabetic mice; 100 mg/kg of bw per os, 3h): (−46.58) %; Blood glucose concentration (STZ-diabetic mice; 100 mg/kg of bw per os, 3h): 12.5 ± 4.7 mM; % Variation of glycemia (STZ-diabetic mice; 100 mg/kg of bw per os, 5h): (−67.52) %; Blood glucose concentration (STZ-diabetic mice; 100 mg/kg of bw per os, 5h): 7.6 ± 3.8 mM; % Variation of glycemia (STZ-diabetic mice; 100 mg/kg of bw per os, 7h): (−70.51) %; Blood glucose concentration (STZ-diabetic mice; 100 mg/kg of bw per os, 7h): 6.9 ± 2.6 mM; % Variation of glycemia (STZ-diabetic mice; 100 mg/kg of bw per os, 9h): (−65.81) %; Blood glucose concentration (STZ-diabetic mice; 100 mg/kg of bw per os, 9h): 8.0 ± 2.3 mM; IC50 [1]: 163 ± 7.13 µM; α-glucosidase inhibitory activity (in words) (α-Glucosidase): moderate to excellent inhibitory activity; IC50 (α-Glucosidase): 11.5 ± 1.3 µM; IC50 (AGEs formation): 24.68 ± 0.12 µM
3 | COc1ccc(-c2cc3c(O)cc(O)cc3oc2=O)cc1 [Compound 35, 5,7-Dihydroxy-3-(4-methoxyphenyl)-coumarin] | 20.5 ± 7.1 mM | (−36.10) % | 13.1 ± 6.4 mM | (−47.81) % | 10.7 ± 5.7 mM | (−72.68) % | 5.6 ± 3.1 mM | (−73.66) % | 5.4 ± 3.4 mM | (−72.20) % | 5.7 ± 3.1 mM | 21.6 ± 4.4 mM | (−44.44) % | 12.0 ± 3.7 mM | (−51.39) % | 10.5 ± 5.1 mM | (−70.83) % | 6.3 ± 4.3 mM | (−73.61) % | 5.7 ± 6.7 mM | hypoglycemic effect (STZ-diabetic mice): > 50%; highest anti-hyperglycemic effect (STZ-diabetic mice; 10 mg/kg, at 7 h): ~73.66%; highest anti-hyperglycemic effect (STZ-diabetic mice; 30 mg/kg, at 9 h): ~74.54%; % Variation of glycemia (STZ-diabetic mice; 30 mg/kg of bw per os, 9h): (−74.54) %; Blood glucose concentration (STZ-diabetic mice; 30 mg/kg of bw per os, 9h): 5.5 ± 5.2 mM; Blood glucose concentration (STZ-diabetic mice; 100 mg/kg of bw per os, 0h): 20.3 ± 4.4 mM; % Variation of glycemia (STZ-diabetic mice; 100 mg/kg of bw per os, 1.5h): (−25.62) %; Blood glucose concentration (STZ-diabetic mice; 100 mg/kg of bw per os, 1.5h): 15.1 ± 5.0 mM; % Variation of glycemia (STZ-diabetic mice; 100 mg/kg of bw per os, 3h): (−48.28) %; Blood glucose concentration (STZ-diabetic mice; 100 mg/kg of bw per os, 3h): 10.5 ± 4.9 mM; % Variation of glycemia (STZ-diabetic mice; 100 mg/kg of bw per os, 5h): (−64.53) %; Blood glucose concentration (STZ-diabetic mice; 100 mg/kg of bw per os, 5h): 7.2 ± 2.6 mM; % Variation of glycemia (STZ-diabetic mice; 100 mg/kg of bw per os, 7h): (−64.53) %; Blood glucose concentration (STZ-diabetic mice; 100 mg/kg of bw per os, 7h): 7.2 ± 3.9 mM; % Variation of glycemia (STZ-diabetic mice; 100 mg/kg of bw per os, 9h): (−68.47) %; Blood glucose concentration (STZ-diabetic mice; 100 mg/kg of bw per os, 9h): 6.4 ± 2.0 mM; IC50 [1]: 155 ± 10.5 µM; α-glucosidase inhibitory activity (in words) (α-Glucosidase): moderate to excellent inhibitory activity; IC50 (α-Glucosidase): 10.8 ± 0.63 µM; IC50 (AGEs formation): 5.21 ± 0.07 µM
